Source: US20260091136A1, “USING ENHO GENE THERAPY TO TREAT CARDIOMETABOLIC DISEASE” (University of Pittsburgh-of the Commonwealth System of …, priority 2023, published 2026)
Entries after “also recorded” stand apart in the source; their conditions may differ.

Tests used:
[1] = tested on: HFpEF mice; assay: Glucose tolerance testing (IPGTT) in HFpEF mice (Example 1); format: in vivo; conditions: for glucose tolerance: HFpEF mice, four weeks of Adropin treatment
Experimental: (§1) Administration of Recombinant Adropin. Mice received low-fat chow or HFpEF diet for 10 weeks. For the following 4 weeks, the mice were maintained on respective diets and received daily injections of recombinant Adropin. Body weight was measured every day during the four weeks of treatment.
Glucose tolerance testing. Glucose tolerance was tested (IPGTT), following a 2 g/kg bolus of glucose. Blood was collected at 15 mins, 30 mins, 45 mins, 60 mins, 90 mins, and 120 mins, and measured using a standard glucometer (Bayer Next EZ). Time-courses for blood glucose uptake will be generated and analyzed for significance using standard statistical tests.

[2] = tested on: GPR19; conditions: previous work from our group; cited from earlier work
[3] = tested on: LCAD; assay: O-GlcNAc co-immunoprecipitation from heart: LCAD; format: in vivo, C57BL/6J mice; conditions: Adropin-treated HFpEF mice, relative to levels in chow mice / HFpEF
Source text: (§2) Animal Care and Use. Male C57BL/6J 8-week-old mice were obtained from the Jackson Laboratory and maintained on chow for 4 weeks to acclimate to their new environment. Animals were housed in the University of Pittsburgh animal facility under standard conditions with ad libitum access to water and food and maintained on a constant 12-hour light/dark cycle. At 12 weeks of age, the mice were exposed to normal chow (Chow; 60% carbohydrate, 26% protein, 14% fat), or a combination of high-fat diet (HFD; 20% carbohydrate, 20% protein, 60% fat) plus No-nitro-L-arginine methyl ester (L-NAME: 0.5 g/L) supplemented in their drinking water after adjusting the pH to 7.4 with 1N NaOH to induce HFpEF [10]. For cohort 1, the mice were subject to the HFpEF diet for 15 weeks. For cohort 2, after 8 weeks of diet, mice were randomly assigned to a control or treatment group receiving daily intraperitoneal injections of either vehicle or recombinant adropin at 450 nmol/kg animal weight prepared in PBS with 0.1% BSA for the remaining 5 weeks of the study. L-NAME supplemented drinking water was changed weekly and adropin was made fresh and sterile filtered before each use.
Co-Immunoprecipitation. […] Images were obtained using LiCor Odyssey CLx System and protein densitometry was measured using the LiCor Image Studio Lite Ver. […]

[4] = tested on: HFpEF mice; assay: Body weight during four weeks of daily recombinant Adropin in HFpEF mice (Example 1); format: in vivo; conditions: for relative body weight (change per mouse between days 0 and 29): p-value<0.0001
Source text: The mouse HFpEF model used in this study was first reported in Schiattarella et al. (2019), Nature 568: 351-356 (PMID: 30971818). Adult C57BL/6N or C57BL/6J mice (i.e. C57BL/6 wildtype) are placed on a diet of either regular chow (“control”), or a high fat diet (60% fat) supplemented with 0.5 g/L L-NAME in drinking water (“HFpEF”) for 5-20 weeks.
as §1

[5] = tested on: HFpEF mice; assay: Heart weight and heart histology (Masson's trichrome, WGA), cohort 2; format: in vivo, C57BL/6J mice; conditions: for cardiac fibrosis / cardiomyocyte hypertrophy: HFpEF mice following Adropin treatment, histology
Source text: as §2
Histology. Preparation and staining of all histological samples were conducted by the Pitt Biospecimen Core at the University of Pittsburgh. All mice were sacrificed, and tissue harvested for analysis within one hour of completion of the IPGTT study. The apex of the heart and right (cohort 1) or left (cohort 2) lobe of the liver was excised from each mouse following euthanasia, fixed in 10% buffered formalin phosphate overnight at shaking incubation, washed 3 times for 5 min with 1× phosphate-buffered saline (PBS), and then transferred to 70% ethanol. Samples were then embedded in paraffin, sectioned into 4 μm slides and stained with hematoxylin and eosin (H&E), wheat germ agglutinin (WGA) or Masson's Trichrome for analysis. The NAFLD/MAFLD activity score (NAS) was obtained based on methods established by the Pathology Committee of the Non-alcoholic Steatohepatitis (NASH) Clinical Research Network. Liver pathology scoring was performed in a blinded independent fashion. NAS consisted of separate category scores which included steatosis (0-3), where 0=0-5%, 1=6-33%, 2=34-66%, and 3=67-100% of hepatocytes positive for steatosis; lobular inflammation (0-3), where 0=no foci, 1=[…], 2=2-4 foci and 3=greater than 4 foci all per 200× field; and hepatocellular ballooning (0-2), where 0=none present, 1=few and 2=many/prominent. The final NAS represents a sum of the three category scores. Histology sections were visualized with the Evos FL Auto 2 Microscope, observed changes in structure were quantified using ImageJ software and representative images are shown.

[6] = tested on: GPR19; assay: Wildtype and GPR19-knockout mice on HFpEF diet with or without Adropin; format: in vivo
Source text: Wildtype and GPR19-knockout (GPR19-KO) mice were given normal chow (control mice), HFpEF diet without Adropin, or HFpEF with Adropin.

[7] = IPGTT AUC analysis, p-value <0.05
[8] = wildtype HFpEF mice that received Adropin vs wildtype control mice

In the case of “Adropin: recombinant Adropin peptide hormone encoded by the ENHO gene; full-length (SEQ ID NO: 1) or cleaved product of amino acids 34-76 (SEQ ID NO: 2) (CHSRSADVDSLSESSPNSSPGPCPEKAPPPQKPSHEGSYLLQP)”, the “average blood glucose, IPGTT” value ([1]; HFpEF mice that received Adropin, by the 120 minute timepoint) was “gradually decreased to match control chow mice”, the glucose tolerance [1] was “increase” and the glucose tolerance ([1]; listed as Recombinant Adropin) was “significant increase”. For the same substance, the “blood glucose AUC of HFpEF mice that received Adropin relative to control chow mice” value [1, 7] was “significantly greater”, the “blood glucose AUC of HFpEF mice without Adropin relative to HFpEF mice that received Adropin” value [1, 7] was “significantly greater” and the “Adropin function in cardiac cells” value [2] was “dependent on GPR19”. For the same substance, the “LCAD O-GlcNAcylation” value [3] was “restored; also recorded: reduced”, the “relative body weight (change per mouse between days 0 and 29)” value ([4]; HFpEF mice that received Adropin vs HFpEF mice without treatment) was “significantly lower” and the “relative body weight (change per mouse between days 0 and 29)” value ([4]; HFpEF mice that received Adropin vs mice on control chow diet) was “significantly greater”. The body weight ([4]; HFpEF mice which received Adropin versus HFpEF mice which did not, daily Adropin for four weeks, beginning on day 8) was “reduced; also recorded: decrease”, the “increase in normalized heart weight to tibia length” value ([5]; HFpEF increase vs chow, in adropin-treated animals) was “absent” and the cardiac fibrosis [5] was “prevented the development; also recorded: reduced”. For the same substance, the cardiomyocyte hypertrophy [5] was “prevented the development; also recorded: reduced”, the cardiac fibrosis ([5]; listed as adropin) was “reversed” and the cardiomyocyte hypertrophy ([5]; listed as adropin) was “reversed”. The IVRT ([6]; GPR19-KO HFpEF mice vs GPR19-KO control mice, in contrast to wildtype, p-value <0.01) was “significantly greater”, the “diastolic function (MV E/e′)” value ([6]; GPR19-KO mice vs control mice, in contrast to wildtype, p-value <0.001) was “remained significantly lower” and the “fasted body weight of HFpEF mice relative to HFpEF mice that received Adropin” value ([6]; GPR19-KO mice, p-value <0.0001) was “significantly greater”. For the same substance, the “Adropin-mediated improvement of diastolic function in GPR19-KO HFpEF mice” value ([6]; fasted body weight, MV E/e′ and IVRT) was “not observed; also recorded: GPR19-dependent”, the “body weight of GPR19-KO HFpEF mice that received Adropin relative to wildtype HFpEF mice that received Adropin” value ([6]; p-value <0.0001) was “significantly greater” and the “diastolic function (MV E/e′)” value ([6]; wildtype HFpEF mice that received Adropin vs wildtype HFpEF mice without Adropin) was “increased on average”. The IVRT [6, 8] was “not significantly different”, the “diastolic function (MV E/e′)” value [6, 8] was “not significantly different” and the IVRT ([6]; wildtype HFpEF which received Adropin vs wildtype HFpEF mice without treatment, p-value <0.01) was “significantly lower”. For the same substance, the “fasted body weight of HFpEF mice relative to HFpEF mice that received Adropin” value ([6]; wildtype mice, p-value <0.0001) was “significantly greater”.
